In US6962900B2, “Pharmaceutical being used for treating HIV infection, the composition and uses thereof” (priority 2001, dated 2005):
“Also recorded” adds a separate entry of the source. Peptide text beside a SMILES is read from it.

How the values were obtained:
[1] = test system: HIV; conditions: first and second stages of clinical trials; cited from earlier work
[2] = biological target: T1, gp41 N-peptide (Human immunodeficiency virus type 1 group M subtype B, UniProt P04578); experiment: stability by melting curve (circular dichroism) of peptide complexed with gp41 N-peptide; type: physicochemical, HIV-1
T1 construct: The peptide solution containing Fusonex and gp41 N-peptide (35-70) was measured
Description: This experiment determined the stability of a polypeptide by measuring its melting curve at different temperatures. The experiment was carried out on Aviv 62A DS circular dichroism spectrum apparatus. The temperature range for heating peptide solution was from 20° C. to 95° C.

[3] = biological target: T2, HIV-1 gp160HXB (Human immunodeficiency virus type 1 group M subtype B, UniProt P04578); experiment: cell-cell fusion assay (luciferase reporter, synplasm formation induced by HIV-1 gp160HXB); type: cell-based
T2 construct: expressed in transfected cells; host or cells: 293T cells
T2 sequence (P04578 512-856): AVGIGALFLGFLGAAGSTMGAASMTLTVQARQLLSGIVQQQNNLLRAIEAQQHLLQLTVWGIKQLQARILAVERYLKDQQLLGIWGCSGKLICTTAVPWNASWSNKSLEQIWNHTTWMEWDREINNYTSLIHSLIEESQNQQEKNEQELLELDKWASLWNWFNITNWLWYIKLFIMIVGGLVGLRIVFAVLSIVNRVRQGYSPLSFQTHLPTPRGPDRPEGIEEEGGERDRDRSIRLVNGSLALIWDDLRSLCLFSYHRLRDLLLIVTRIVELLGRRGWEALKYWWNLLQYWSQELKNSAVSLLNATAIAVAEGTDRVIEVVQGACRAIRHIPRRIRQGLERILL
Excerpt: The specific experiment methods are as follows: The T7 promoter was inserted into the pSP64 upstream sequence of the cloning site to assemble a luciferase reporter gene plasmid—Pst7luc. The internal ribozyme entry site (IRES) of encephalomyocarditis virus (CMCV) was linked with the 5′-terminal of luciferase gene as well as the downstream area of T7 promoter. CD4 gene, T7 polymerase gene, and HIV-1 gp160HXB gene were subcloned into the mammalian expression plasmid—PMT3.
In a 10 cm culture dish, the 293T cells were transferred by Calcium Phosphate Method. Equal quantities of gp160HXB gene and T7 polymerase gene were used to transfect the effector cells, and pSP64 and CD4 gene were used to transfect the target cells. The PMT3 plasmid in the absence of gp160HXB or CD4 gene was set as a negative control.
The cells with non-serous DMEM were rinsed, after the DNA precipitate was added. The cells were cultured for 30-40 minutes at 37° C. in 9 ml/dish non-serous DMEM. […]
The solution as a stock solution was put to serial dilution in culture medium before use. […] Two minutes after adding luciferase substrate to the black 96-well culture plate, measure the chemical fluorescence intensity with Spex fluorolog-3 fluorimeter, the emission wavelength being 552 nm and slit breadth being 7 mm. The average and standard deviation were calculated from the three data of each concentration point.

T1 sequence (P04578 546-581): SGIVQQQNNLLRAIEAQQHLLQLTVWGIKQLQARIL

| Molecule | toxicity against the spinal cord [1] | stability compared with T-20 (melting curve) ([2]; FIG. 4) | 50% melting temperature ([2]; heating 20° C. to 95° C.) [°C] | IC50 [3] [nM] | inhibiting activity compared with T-20 (cell fusion induced by HIV-1 gp160HXB) ([3]; at the same concentration, FIG. 5) |
| --- | --- | --- | --- | --- | --- |
| enfuvirtide | no toxicity against the spinal cord | – | – | – | – |
| CC[C@H](C)[C@H](NC(=O)[C@H](CCC(=O)O)NC(=O)[C@H](CCCNC(=N)N)NC(=O)[C@H](CCC(=O)O)NC(=O)[C@H](Cc1c[nH]c2ccccc12)NC(=O)[C@@H](NC(=O)[C@H](CCC(=O)O)NC(=O)[C@H](Cc1c[nH]c2ccccc12)NC(=O)[C@H](CO)NC(C)=O)[C@@H](C)O)C(=O)N[C@@H](CCC(=O)O)C(=O)N[C@@H](CC(N)=O)C(=O)N[C@@H](Cc1ccc(O)cc1)C(=O)N[C@H](C(=O)N[C@@H](CCCCN)C(=O)N[C@@H](CCC(N)=O)C(=O)N[C@H](C(=O)N[C@@H](Cc1ccc(O)cc1)C(=O)N[C@@H](CCCCN)C(=O)N[C@H](C(=O)N[C@@H](CC(C)C)C(=O)N[C@@H](CCC(=O)O)C(=O)N[C@@H](CCC(=O)O)C(=O)N[C@@H](CO)C(=O)N[C@@H](CCC(N)=O)C(=O)N[C@@H](CCC(=O)O)C(=O)N[C@@H](CCC(N)=O)C(=O)N[C@@H](CCC(N)=O)C(=O)N[C@@H](CC(=O)O)C(=O)N[C@@H](CCCNC(=N)N)C(=O)N[C@@H](CC(N)=O)C(=O)N[C@@H](CCC(=O)O)C(=O)N[C@@H](CCCCN)C(=O)N[C@@H](CC(=O)O)C(=O)N[C@@H](CC(C)C)C(=O)N[C@@H](CC(C)C)C(=O)N[C@@H](CCC(=O)O)C(N)=O)[C@@H](C)CC)[C@@H](C)CC)[C@@H](C)O [Fusonex] (Ac-SWETWEREIENYTKQIYKILEESQEQQDRNEKDLLE-NH2) | – | higher than that of T-20; also recorded: more stable than T-20 | 70 | 1.2 ± 0.2 | better inhibiting activity than T-20 |
